Experimental data taken from patent US20160031839A1, “ARGININE […] INHIBITORS AND USES THEREOF” (EPIZYME, INC., priority 2013, published 2016).
Where two headings read alike, the source gives them in different places.

Target: T1, CARM1 (PRMT4) (Homo sapiens, UniProt Q86X55)
T1 construct: Flag-CARM1-His was eluted with 200 ug/ml FLAG peptide in buffer A; made in house; host or cells: HEK 293F cells (BacMam baculovirus)
T1 sequence (Q86X55 2-585 isoform Q86X55-1): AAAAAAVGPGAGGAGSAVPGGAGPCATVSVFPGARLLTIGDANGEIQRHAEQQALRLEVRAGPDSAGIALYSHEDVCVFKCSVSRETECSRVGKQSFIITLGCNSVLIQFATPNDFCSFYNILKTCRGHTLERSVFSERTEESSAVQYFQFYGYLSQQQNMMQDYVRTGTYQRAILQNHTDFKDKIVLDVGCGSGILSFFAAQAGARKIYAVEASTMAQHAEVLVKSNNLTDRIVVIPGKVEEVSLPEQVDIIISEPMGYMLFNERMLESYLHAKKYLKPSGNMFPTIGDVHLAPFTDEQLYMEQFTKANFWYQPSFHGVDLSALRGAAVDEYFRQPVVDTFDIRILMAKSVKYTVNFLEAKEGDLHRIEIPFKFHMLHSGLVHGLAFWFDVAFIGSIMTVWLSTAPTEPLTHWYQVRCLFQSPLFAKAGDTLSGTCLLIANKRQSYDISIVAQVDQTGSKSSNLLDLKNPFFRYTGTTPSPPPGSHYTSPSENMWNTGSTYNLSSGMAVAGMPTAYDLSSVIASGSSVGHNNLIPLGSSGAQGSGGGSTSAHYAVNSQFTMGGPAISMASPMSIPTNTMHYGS
Assay: CARM1 Biochemical Assay
From the text: Peptide representative of human histone H3 residues 16-30 was synthesized with an N-terminal linker-affinity tag motif and a C-terminal amide cap by 21st Century Biochemicals. The peptide was purified by high-performance liquid chromatography (HPLC) to greater than 95% purity and confirmed by liquid chromatography mass spectrometry (LC-MS). The sequence was Biot-Ahx-[…]-amide and contained a monomethylated arginine at position 26 (SEQ ID NO.: 14).
Human CARM1 (PRMT4) (NM_199141.1) transcript clone was amplified from an HEK 293 cDNA library, incorporating a flanking 5′ sequence encoding a FLAG tag ([…]) (SEQ ID NO.:6) fused directly to Ala 2 of CARM1 and 3′ sequence encoding a hexa His sequence ([…]) (SEQ ID NO.: 15) fused directly to Ser 608. The gene sequence encoding isoform1 containing a deletion of amino acids 539-561 was amplified subsequently and subcloned into pFastBacMam (Viva Biotech).
Column was washed with 500 mM NaCl in buffer A and Flag-CARM1-His was eluted with 200 ug/ml FLAG peptide in buffer A. Pooled fractions were dialyzed in 20 mM Tris, 150 mM NaCl, 5% glycerol and 1 mM DTT, pH 7.8. The purity of recovered protein was 94.
General Procedure for CARM1 Enzyme Assays on Peptide Substrates.
The assays were all performed in a buffer consisting of 20 mM Bicine (pH=7.6), 1 mM TCEP, 0.005% BSG, and 0.002% Tween 20, prepared on the day of use. Compounds in 100% DMSO (1 ul) were spotted into a polypropylene 384-well V-bottom plates (Greiner) using a Platemate Plus outfitted with a 384-channel head (Thermo Scientific). DMSO (1 ul) was added to Columns 11, 12, 23, 24, rows A-H for the maximum signal control and 1 ul of SAH, a known product and inhibitor of CARM1, was added to columns 11, 12, 23, 24, rows I-P for the minimum signal control. A cocktail (40 ul) containing the CARM1 enzyme was added by Multidrop Combi (Thermo-Fisher). The compounds were allowed to incubate with CARM1 for 30 min at room temperature, then a cocktail (10 ul) containing ^3H-SAM and peptide was added to initiate the reaction (final volume=51 ul). The final concentrations of the components were as follows: CARM1 was 0.25 nM, ^3H-SAM was 30 nM, peptide was 250 nM, SAH in the minimum signal control wells was 1 mM, and the DMSO concentration was 2%. The assays were stopped by the addition of non-radiolabeled SAM (10 ul) to a final concentration of 300 uM, which dilutes the ^3H-SAM to a level where its incorporation into the peptide substrate is no longer detectable. […] The plates were then read in a PerkinElmer TopCount plate reader to measure the quantity of ^3H-labeled peptide bound to the Flashplate surface, measured as disintegrations per minute (dpm) or alternatively, referred to as counts per minute (cpm). […]

[1] = Table 2, biochemical evaluation, read-out: PRMT4 IC50 (class)
[2] = Table 2a, numerical, single experiment or average of multiple experiments, read-out: PRMT4 IC50

Compound | IC50 [1] | IC50 [2]
CN(CCN)Cc1ccnn1-c1ccc(C#N)cc1 [Compound 2, 4-(5-(((2-aminoethyl)(methyl)amino)methyl)-1H-pyrazol-1-yl)benzonitrile] | > 10 µM | > 10 µM
CN(CCN)Cc1ncoc1-c1ccc(C#N)cc1 [Compound 1, 4-(4-(((2-aminoethyl)(methyl)amino)methyl)oxazol-5-yl)benzonitrile] | > 10 µM | > 10 µM
